13 molecules from paper PMC3574224, “Na^+ Regulation in the Malaria Parasite Plasmodiumfalciparum Involves the Cation ATPase PfATP4 and Is a Target of the Spiroindolone Antimalarials” (Cell Host & Microbe, 2013) can be followed below.

For experiment [1], the system named is P. falciparum 3D7 trophozoites. Nature of the experiment: microbe, parasite or virus in culture. The format is cell-based, Plasmodium falciparum. The conditions noted are these: for Rate of increase of [Na^+]i at maximally effective concentrations: maximally effective concentration; for IC50: Plasmodium falciparum, concentration causing [Na^+]i to increase from resting value at half the maximal rate, from fitted curves, read-out: IC50 for disruption of Na^+ regulation. As for the experimental part: P. falciparum strains 3D7, Dd2, NITD609-R^Dd2 clone #2, Dd2^attB, and Dd2^attB CAM I398F/P990R were cultured under shaking conditions as described elsewhere ([Allen and Kirk, 2010]). Cultures were synchronized 24 hr before experimentation using 5% w/v sorbitol ([Lambros and Vanderberg, 1979]). All experiments were conducted on mature trophozoite-stage parasites (36–40 hr postinvasion) functionally isolated from their host erythrocytes by permeabilization of the erythrocyte and parasitophorous vacuole membranes by brief exposure to saponin (0.05% w/v) as described previously ([Spillman et al., 2008]).
(§1) The [Na^+]i of saponin-isolated parasites was measured at 37°C using the Na^+-sensitive dye SBFI (Molecular Probes, Invitrogen) in conjunction with a PerkinElmer LS 50B Fluorescence Spectrometer fitted with a Dual Excitation Fast Filter. Saponin-isolated parasites were loaded with SBFI by suspension (at 1.40–1.80 × 10^8 cells/mL) for 20 min at 37°C in bicarbonate-free RPMI1640 supplemented with 20 mM D-glucose, 0.2 mM hypoxanthine, 25 mM HEPES, and 25 mg/L gentamycin sulfate (pH 7.10), to which SBFI-acetoxymethyl ester (5.5 μM) and Pluronic F-127 (0.01% w/v) were added. The dye-loaded cells were washed twice (12,000 × g, 0.5 min) in bicarbonate-free RPMI then incubated for a further 20 min at 37°C to allow for complete de-esterification of the dye before being resuspended at a final cell concentration of 1.5–2.5 × 10^7 cells/mL in standard saline. The dye-loaded cells were excited at 340 nm and 380 nm with fluorescence recorded at 490 nm. Calibration of the relationship between the 340/380 nm fluorescence ratio and [Na^+]i (see Figures S1A–S1C) was carried out as described previously ([Diarra et al., 2001]; [Harootunian et al., 1989]).
The initial Na^+ influx rate (at t = 0) is a × Δ[Na^+]i^max.
(§2) Dose-response curves were obtained using the expression y = y^min + y^max/(1 + [C/IC50]^b), where y is the parameter being measured (parasite proliferation, Na^+ influx, or ATPase activity), y^min is the minimum value of y, y^max is the maximum value of y, C is the concentration of the moiety that was varied in the experiment, IC50 is the concentration at which y was reduced to 50% of y^max, and b is a fitted constant.

Experiment [2] concerns P. falciparum trophozoites. Nature of the experiment: Cytosolic [Ca^2+]i in fura-2-loaded saponin-isolated parasites. The format is cell-based, Plasmodium falciparum. The conditions noted are these: 2 μM; medium containing 1 μM Ca^2+. On the procedure: [Ca^2+]i was measured with the Ca^2+-sensitive indicator fura-2 (Molecular Probes, Invitrogen) using a loading protocol identical to that described for SBFI. Calibration was performed as described previously ([Alleva and Kirk, 2001]).

For experiment [3], the system named is P. falciparum trophozoites. Nature of the experiment: Recovery of [Na^+]i from an imposed intracellular Na^+ load (K^+ removal and restoration). The format is cell-based, Plasmodium falciparum. As to conditions: added with 10 mM KCl. On the procedure: The mechanism responsible for the increase in [Na^+]i seen upon removal of extracellular K^+ was not investigated further here. However, the phenomenon does provide a useful means of imposing an intracellular Na^+ load on the parasite and of testing the effect of inhibitors on the net efflux of Na^+ from the Na^+-loaded parasite.
as §1, with “1989]). Several inhibitors used in this study caused inner filter effects ([Gu and Kenny, 2009]; [Srinivas and Mutharasan, 1987]); in these cases calibration curves were generated with the inhibitors present.” for “1989]).”
The rate of efflux of Na^+ from the cells, following an imposed intracellular Na^+ load, was estimated by fitting the following function to the [Na^+]i traces: [Na^+]i = Δ[Na^+]i^max × e^-at + [Na^+]i^final, where Δ[Na^+]i^max is the increase in [Na^+]i above the normal resting value (following the imposition of an intracellular Na^+-load), t is the time after the commencement of efflux (on addition of extracellular K^+), a is a fitted constant, and [Na^+]i^final is the final value of [Na^+]i. The initial Na^+ efflux rate (at t = 0) is a × Δ[Na^+]i^max, and the half-time to complete recovery (t1/2) is ln(0.5)/-a.

Another experiment has as its system P. falciparum parasites. Nature of the experiment: Parasite proliferation, [^3H]hypoxanthine incorporation assay, 48 hr. As to conditions: Plasmodium falciparum; mean ± SEM, number of independent experiments in parentheses; read-out: IC50 for inhibition of parasite proliferation. The format is cell-based. On the procedure:
Parasite growth assays were performed in 96-well plates over 48 hr (commencing at the ring stage) using a standard [^3H]hypoxanthine incorporation assay ([Desjardins et al., 1979]).
as §2

The test system of experiment [4] is P. falciparum trophozoites. Nature of the experiment: Cytosolic pH (pHi) in BCECF-loaded saponin-isolated parasites. The format is cell-based, Plasmodium falciparum. On the procedure: pHi of saponin-isolated parasites was measured using the pH-sensitive indicator BCECF (Molecular Probes, Invitrogen) as described previously ([Saliba and Kirk, 1999]). […] Critical experiments performed using SBFI-loaded parasites were repeated with parasites loaded with BCECF.

Where [5] appears, read: 10 μM, on the timescale of the experiments.

As to `CC(=O)C1=C(O)[C@@H]2[C@H]3c4c[nH]c5cccc(c45)C[C@H]3C(C)(C)N2C1=O` [CPA, cyclopiazonic acid, reference compound], in experiment [1] (40 μM), the “Effect on [Na^+]i” value is “caused [Na^+]i to increase”. Moreover, in experiment [2], the “Effect on [Ca^2+]i” value was “transient increase in [Ca^2+]i”.
Take `CCN(c1nc(N)c(C(=O)NC(=N)N)nc1Cl)C(C)C` [EIPA, ethylisopropylamiloride, reference compound]: in experiment [1] (20 μM), the “Effect on resting [Na^+]i” value is recorded as “Neither the Na^+/H^+ exchanger inhibitor ethylisopropylamiloride (EIPA; 20 μM) nor the Na^+/K^+-ATPase inhibitor ouabain (2 mM) had a significant effect”. Moreover, the “Effect on recovery of [Na^+]i after Na^+ load” value in experiment [3] (20 μM) was “unaffected”.
With `NS(=O)(=O)c1cc(C(=O)O)c(NCc2ccco2)cc1Cl` [Furosemide, reference compound], the “Effect on recovery of [Na^+]i after Na^+ load” value in experiment [3] (100 μM) was “slowed”.
For the molecule `C[C@@H]1CCc2c([nH]c3ccccc23)[C@]2(N1)C(=O)Nc1ccc(Br)cc12` [NITD138], the “Effect on resting [Na^+]i” value in experiment [1] (50 nM, 3D7, standard saline) was “little effect”. In experiment [1], the “Rate of increase of [Na^+]i at maximally effective concentrations” value was “did not reach the maximum value at the highest concentration tested”. Further, the IC50 with P. falciparum parasites is 2300 ± 200 nM.
On to `C[C@H]1CCc2c([nH]c3ccccc23)[C@@]2(N1)C(=O)Nc1ccc(Br)cc12` [NITD139], for which the “Effect on resting [Na^+]i” value in experiment [1] (50 nM, 3D7, standard saline) was “immediate rapid increase in [Na^+]i”. The IC50 in experiment [1] (3D7, standard saline) was found to be 16.6 ± 5.7 nM; with P. falciparum parasites, 4 ± 0.9 nM. Also, the “Rate of increase of [Na^+]i at maximally effective concentrations” value in experiment [1] is listed as 0.098 ± 0.007 mM/s.
For `C[C@@H]1Cc2c([nH]c3cc(F)c(F)cc23)[C@]2(N1)C(=O)Nc1ccc(Cl)cc12` [NITD247], the “Effect on resting [Na^+]i” value in experiment [1] (50 nM, 3D7, standard saline) was “little effect”. Besides, the IC50 in experiment [1] (3D7, standard saline) is 407 ± 117 nM; with P. falciparum parasites it was 41.6 ± 5.8 nM. In experiment [1], the “Rate of increase of [Na^+]i at maximally effective concentrations” value is on record as 0.125 ± 0.013 mM/s.
`[Na+].[Na+].[Na+].[O]=[V]([O-])([O-])[O-]` [Sodium orthovanadate, reference compound]: in experiment [1] (100 μM), the “Effect on [Na^+]i” value was “prolonged time-dependent increase”. Besides, the “Rate of increase of [Na^+]i” value in experiment [1] (500 μM, n = 4) is 0.13 ± 0.03 mM/s. For the same molecule, the “Cytosolic pH (pHi) after addition” value in experiment [4] (100 μM, Na^+-dependent, increase from 7.28 ± 0.03, n = 6, p = 0.024) was found to be 7.36 ± 0.03.
Consider `C[C@@H]1CC[C@H]2[C@@H](C)C(=O)O[C@@H]3O[C@@]4(C)CC[C@@H]1[C@]32OO4` [artemisinin, reference compound], for which the “Effect on [Na^+]i” value in experiment [1] (setting [5]) was “no effect”.
As for `CCN(CC)CCCC(C)Nc1ccnc2cc(Cl)ccc12` (stereo not shown) [chloroquine, reference compound], the “Effect on [Na^+]i” value in experiment [1] (setting [5]) is given as “no effect”.
As to `C/C=C/[C@H]1O[C@@](O)([C@@H](C)[C@H](O)[C@H](C)[C@H]2OC(=O)/C(OC)=C/C(C)=C/[C@@H](C)[C@@H](O)[C@@H](CC)[C@@H](O)[C@H](C)C/C(C)=C/C=C/[C@@H]2OC)C[C@@H](O[C@H]2C[C@@H](O)[C@H](OC(N)=O)[C@@H](C)O2)[C@@H]1C` [concanamycin A, reference compound], the “Effect on pHi of parasites after NITD246- or orthovanadate-induced alkalinisation” value in experiment [4] (75 nM, pHi decreasing to below its normal resting value) is reported as “immediate reversal of the alkalinisation”.
In the case of `C[C@@H]1O[C@@H](O[C@H]2C[C@@H](O)[C@]3(CO)[C@H]4[C@H](O)C[C@]5(C)[C@@H](C6=CC(=O)OC6)CC[C@]5(O)[C@@H]4CC[C@]3(O)C2)[C@H](O)[C@H](O)[C@H]1O` [ouabain, reference compound], the “Effect on resting [Na^+]i” value in experiment [1] (2 mM) is “nor the Na^+/K^+-ATPase inhibitor ouabain (2 mM) had a significant effect”.
For the molecule `C/C=C(/C)C(=O)O[C@H]1C(C)=C2[C@H]([C@@H]1OC(=O)CCCCCCC)[C@@](C)(OC(C)=O)C[C@H](OC(=O)CCC)[C@@]1(O)[C@H]2OC(=O)[C@@]1(C)O` [thapsigargin, reference compound], in experiment [1] (2 μM), the “Effect on [Na^+]i” value is “little effect”.
Consider Gramicidin [reference compound], for which the “Effect on [Na^+]i” value in experiment [1] (5 μM, [Na^+]o 125 mM) was “rapid increase in [Na^+]i”.
